Reference: US20260285853A1, “COMPOUNDS AND METHODS FOR MODULATING SPLICING” (REMIX THERAPEUTICS INC., priority 2023, published 2026)
Structures can show the parent of a compound that is named as a salt.

What was measured:
Assay type in all cases: cell-based
HTT mRNA = test: Gene panel canonical junction qPCR assay, decrease in CJ mRNA, Table 3
Procedure, shortened: (§1)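 Cells: A673 or K562; 24 h compound exposure, 37 °C, 5% CO2; 11-pt 3-fold series from 10 uM final; DMSO ≤0.25%. Lysate → cDNA → qPCR with junction-spanning primers/probe for CJ transcript. ΔCt vs housekeeper, ΔΔCt vs DMSO, 2^(−ΔΔCt), % response, 4PL → IC50.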

MYB mRNA = test: as above
Procedure, shortened: as §1

SMN2 mRNA = test: as above
Procedure, shortened: as §1

[1] = tested on: SH-SY5Y (human neuroblastoma) cells; test: Cell viability, Cell Titer Glo 2.0 assay; settings: read-out: Viability SHSY5Y.3 GI50
Procedure, shortened: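 CellTiter-Glo 2.0 luminescence read-out after 72 h compound exposure (37 °C, 5% CO2); medium-only wells as blank. DMSO 0.1% final.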

[2] = decrease in canonical junction (CJ) mRNA, gene panel qPCR, Table 3
[3] = decrease in CJ mRNA levels, canonical junction qPCR, gene panel

| SMILES | IC50 (HTT mRNA; [2]) [nM] | IC50 (MYB mRNA; [2]) [nM] | IC50 (SMN2 mRNA; [2]) [nM] | GI50 [1] [nM] | IC50 (HTT mRNA; [3]) [nM] | IC50 (MYB mRNA; [3]) [nM] | IC50 (SMN2 mRNA; [3]) [nM] |
| --- | --- | --- | --- | --- | --- | --- | --- |
| Cc1cn2cc(NC(=O)c3c(O)cc(N4CC[C@@H](NC5CC5)C4)c4cn(C)nc34)cc(F)c2n1 [Compound 288, 4-[(3R)-3-(cyclopropylamino)-pyr-rolidin-1-yl]-N-(8-fluoro-2-methyl-imidazo[1,2-a]pyridin-6-yl)-6-hydroxy-2-methyl-indazole-7-carboxamide] | > 10000 | < 100 | < 100 | 100 to 1000 |  |  |  |
| CCNC1CCN(c2ccc(C(=O)Nc3cc(F)c4nc(CO)cn4c3)c3nn(C)cc23)CC1 [Compound 193, 4-[4-(ethylamino)-1-piperidyl]-N-[8-fluoro-2-(hydroxymethyl)imidazo[1,2-a]pyridin-6-yl]-2-methyl-indazole-7-carboxamide] | > 10000 | 100 to 1000 | < 100 | 1000 to 10000 |  |  |  |
| CCNC1CCN(c2ccc(C(=O)Nc3ccc4nc(C)cn4c3)c3nn(C)cc23)CC1 [Compound 176, 4-[4-(ethylamino)-1-piperidyl]-2-methyl-N-(2-methylimidazo[1,2-a]pyridin-6-yl)-indazole-7-carboxamide] | 1000 to 10000 | 100 to 1000 | < 100 | 100 to 1000 |  |  |  |
| Cc1cn2cc(NC(=O)c3ccc(C4CNCCO4)c4[nH]cnc34)cc(F)c2n1 (stereo not shown) [Compound 194, N-(8-fluoro-2-methyl-imidazo[1,2-a]pyridin-6-yl)-7-morpholin-2-yl-1H-benzimidazole-4-carboxamide] | 1000 to 10000 | 100 to 1000 | < 100 | 1000 to 10000 |  |  |  |
| Cc1cn2cc(NC(=O)c3ccc(N4C[C@@H](C)N[C@@H](C)C4)c4nn(C)nc34)cc(F)c2n1 [Compound 252, 7-((3S,5R)-3,5-dimethyl-piperazin-1-yl)-N-(8-fluoro-2-methyl-imidazo[1,2-a]pyridin-6-yl)-2-methyl-2H-benzo[d][1,2,3]triazole-4-carboxamide 2,2,2-trifluoroacetate] | 100 to 1000 | 100 to 1000 | < 100 | 1000 to 10000 |  |  |  |
| Cc1cn2cc(NC(=O)c3ccc(N4CCNC(C(F)F)C4)c4cn(C)nc34)cc(F)c2n1 (stereo not shown) [Compound 249, 4-[3-(difluoromethyl)piperazin-1-yl]-N-(8-fluoro-2-methylimidazo[1,2-a]pyridin-6-yl)-2-methyl-indazole-7-carboxamide] | 1000 to 10000 | 100 to 1000 | < 100 | 1000 to 10000 |  |  |  |
| CCNC1CCN(c2cc(F)c(C(=O)Nc3cc(F)c4nc(C)cn4c3)c3ccoc23)CC1 [Compound 195, 7-[4-(ethylamino)-1-piperidyl]-5-fluoro-N-(8-fluoro-2-methylimidazo[1,2-a]pyridin-6-yl)-benzofuran-4-carboxamide] | > 10000 | > 10000 | 1000 to 10000 | 1000 to 10000 |  |  |  |
| CCN[C@@H]1CCN(c2cc(O)c(C(=O)Nc3cc(F)c4nn(C)cc4c3)c3nn(C)cc23)C1 [Compound 294, 4-[(3R)-3-(ethylamino)-pyrrolidin-1-yl]-N-(7-fluoro-2-methyl-indazol-5-yl)-6-hydroxy-2-methyl-indazole-7-carboxamide] | 100 to 1000 | < 100 | < 100 | 100 to 1000 |  |  |  |
| CN[C@H]1CCN(c2ccc(C(=O)Nc3cc(F)c4nc(C)cn4c3)c3nn(C)nc23)C1 [Compound 163, (S)-N-(8-fluoro-2-methylimidazo-[1,2-a]pyridin-6-yl)-2-methyl-7-(3-(methylamino)pyrrolidin-1-yl)-2H-benzo[d]-[1,2,3]triazole-4-carboxamide] | 100 to 1000 | 100 to 1000 | < 100 | 100 to 1000 |  |  |  |

Next, values leading:

| IC50 (HTT mRNA; [2]) [nM] | IC50 (MYB mRNA; [2]) [nM] | IC50 (SMN2 mRNA; [2]) [nM] | GI50 [1] [nM] | IC50 (HTT mRNA; [3]) [nM] | IC50 (MYB mRNA; [3]) [nM] | IC50 (SMN2 mRNA; [3]) [nM] | SMILES |
| --- | --- | --- | --- | --- | --- | --- | --- |
| 100 to 1000 | < 100 | < 100 | 100 to 1000 |  |  |  | CN[C@@H]1CCN(c2ccc(C(=O)Nc3cc(F)c4nc(C)cn4c3)c3nn(C)cc23)[C@@H]1C (single isomer, unassigned) [Compound 153] |
| 1000 to 10000 | 1000 to 10000 | 100 to 1000 | > 10000 |  |  |  | COCC1(N[C@H]2CCN(c3ccc(C(=O)Nc4cc(F)c5nc(C)cn5c4)c4nn(C)cc34)C2)CC1 [Compound 118, (S)—N-(8-fluoro-2-methylimidazo[1,2-a]pyridin-6-yl)-4-(3-((1-(methoxymethyl)cyclopropyl)amino)pyrrolidin-1-yl)-2-methyl-2H-indazole-7-carboxamide] |
|  |  |  | 1000 to 10000 | 1000 to 10000 | 100 to 1000 | < 100 | Cc1cn2cc(NC(=O)c3ccc(N4C[C@@H](C)N[C@@H](C)C4)c4c3nnn4C)cc(F)c2n1 [Compound 635] |
| > 10000 | > 10000 | > 10000 | 100 to 1000 |  |  |  | Cc1nc2c(F)cc(NC(=O)c3ccc(N4CCC(NC5CC5)CC4)c4cn(C)nc34)cn2c1C [Compound 189, 4-[4-(cyclopropylamino)-1-piperidyl]-N-(8-fluoro-2,3-dimethyl-imidazo[1,2-a]pyridin-6-yl)-2-methyl-indazole-7-carboxamide] |
| > 10000 | > 10000 | 1000 to 10000 | > 10000 |  |  |  | Cc1cn2cc(NC(=O)c3ccc(N4C[C@@H](C)N[C@@H](C)C4)c4[nH]nnc34)cc(F)c2n1 [Compound 243, 7-((3S,5R)-3,5-dimethylpiperazin-1-yl)-N-(8-fluoro-2-methylimidazo[1,2-a]pyridin-6-yl)-1H-benzo[d][1,2,3]-triazole-4-carboxamide hydrochloride] |
| 100 to 1000 | 100 to 1000 | < 100 | 100 to 1000 |  |  |  | Cc1cn2cc(NC(=O)c3ccc(C4CCC(NC5CC5)CC4)c4cn(C)nc34)cc(F)c2n1 (stereo not shown) [Compound 192, 4-[4-(cyclopropylamino)cyclohexyl]-N-(8-fluoro-2-methyl-imidazo[1,2-a]pyridin-6-yl)-2-methyl-indazole-7-carboxamide] |
| > 10000 | 1000 to 10000 | 1000 to 10000 | 100 to 1000 |  |  |  | CN[C@@H]1CCN(c2ccc(C(=O)Nc3cc(F)c4nc(C)cn4c3)c3nn(C)cc23)[C@H]1C [Compound 155, N-(8-fluoro-2-methylimidazo-[1,2-a]pyridin-6-yl)-2-methyl-4-[(2S,3R)-2-methyl-3-(methylamino)-pyrrolidin-1-yl]indazole-7-carboxamide] |
| 1000 to 10000 | 100 to 1000 | 100 to 1000 | 1000 to 10000 |  |  |  | COCC1(N[C@@H]2CCN(c3ccc(C(=O)Nc4cc(F)c5nc(C)cn5c4)c4nn(C)cc34)C2)CC1 [Compound 119, (R)—N-(8-fluoro-2-methylimidazo[1,2-a]pyridin-6-yl)-4-(3-((1-(methoxymethyl)cyclopropyl)amino)-pyrrolidin-1-yl)-2-methyl-2H-indazole-7-carboxamide] |
| 100 to 1000 | 100 to 1000 | 100 to 1000 | 100 to 1000 |  |  |  | CCNC1CCN(c2ccc(C(=O)Nc3cc(C)c4nc(C)cn4n3)c3nn(C)cc23)CC1 [Compound 186, N-(2,8-dimethylimidazo [1,2-b]pyridazin-6-yl)-4-[4-(ethylamino)-1-piperidyl]-2-methyl-indazole-7-carboxamide] |
| 1000 to 10000 | 1000 to 10000 | 100 to 1000 | 1000 to 10000 |  |  |  | Cc1cn2cc(NC(=O)c3ccc(N4C[C@@H](C)N[C@@H](C)C4)c4[nH]c(C)nc34)cc(F)c2n1 [Compound 225, 7-[(3R,5S)-3,5-dimethylpiperazin-1-yl]-N-(8-fluoro-2-methylimidazo[1,2-a]pyridin-6-yl)-2-methyl-1H-1,3-benzodiazole-4-carboxamide] |
